This experiment addresses T1, hERG (Kv11.1 potassium channel) (Homo sapiens, UniProt Q12809).
T1 construct: gene KCNH2
Nature of the experiment: automated patch clamp, multi-site, Bayesian hierarchical model. In general terms: In patch-clamp work, channel activity is measured electrically.

The IC50 is the point on the concentration scale where inhibition reaches its midpoint.

T1 sequence (Q12809 whole entry): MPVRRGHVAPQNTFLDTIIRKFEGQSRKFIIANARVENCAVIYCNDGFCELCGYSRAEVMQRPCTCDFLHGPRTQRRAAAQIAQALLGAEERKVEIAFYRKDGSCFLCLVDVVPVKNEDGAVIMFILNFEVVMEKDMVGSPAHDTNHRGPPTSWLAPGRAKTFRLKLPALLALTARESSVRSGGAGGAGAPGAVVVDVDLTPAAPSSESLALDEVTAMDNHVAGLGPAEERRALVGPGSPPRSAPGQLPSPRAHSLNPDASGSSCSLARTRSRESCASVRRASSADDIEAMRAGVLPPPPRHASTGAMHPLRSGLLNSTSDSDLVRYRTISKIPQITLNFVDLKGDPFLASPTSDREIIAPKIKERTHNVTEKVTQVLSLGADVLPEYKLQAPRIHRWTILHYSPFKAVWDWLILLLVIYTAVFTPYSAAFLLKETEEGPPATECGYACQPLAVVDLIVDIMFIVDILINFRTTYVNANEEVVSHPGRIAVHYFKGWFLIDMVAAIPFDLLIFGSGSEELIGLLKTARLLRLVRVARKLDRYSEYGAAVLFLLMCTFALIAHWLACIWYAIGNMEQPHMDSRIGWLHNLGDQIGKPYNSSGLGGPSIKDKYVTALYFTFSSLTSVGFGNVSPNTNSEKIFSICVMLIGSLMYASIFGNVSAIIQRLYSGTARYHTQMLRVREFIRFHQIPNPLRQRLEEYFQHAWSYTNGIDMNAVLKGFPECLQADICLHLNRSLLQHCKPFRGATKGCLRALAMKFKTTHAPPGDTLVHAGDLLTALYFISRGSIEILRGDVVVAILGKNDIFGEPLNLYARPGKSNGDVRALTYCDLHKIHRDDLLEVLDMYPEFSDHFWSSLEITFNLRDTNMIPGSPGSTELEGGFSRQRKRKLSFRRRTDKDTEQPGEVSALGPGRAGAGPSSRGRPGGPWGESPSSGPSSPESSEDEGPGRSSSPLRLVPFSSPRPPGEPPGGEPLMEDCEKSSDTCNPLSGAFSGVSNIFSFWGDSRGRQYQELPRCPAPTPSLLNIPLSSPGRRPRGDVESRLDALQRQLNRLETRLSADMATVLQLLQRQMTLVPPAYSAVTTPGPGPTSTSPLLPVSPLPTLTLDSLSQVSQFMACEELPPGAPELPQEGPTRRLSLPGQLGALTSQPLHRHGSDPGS

`CCOC(=O)C1=C(C)NC(C)=C(C(=O)OC)C1c1cccc([N+](=O)[O-])c1` (stereo not shown) [nitrendipine] displayed an IC50 of 20 µM.

The values are drawn from paper PMC7166077, “A systematic strategy for estimating hERG block potency and its implications in a new cardiac safety paradigm” (Toxicology and Applied Pharmacology, 2020).
